# Results published in patent US10544150B2, “NK-3 receptor selective antagonist compounds, pharmaceutical composition and methods for use in NK-3 receptors mediated disorders” (Ogeda SA, priority 2010, dated 2020).
# pKi: −log10 of the molar value.
# Target: human NK-3 receptor (Homo sapiens (Human), UniProt P29371)
# Assay: 3H-SB222200 binding competition assay with human NK-3 receptor
# Settings: 3H-SB222200 displacement, CHO cell membranes expressing human NK3 receptor; read-out: Ki range
# Summary of the method: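 Radioligand displacement: 5 nM tritiated SB222200 competed by varying compound concentrations on recombinant CHO membranes bearing human NK3, buffer pH 7.4 with HEPES, NaCl, CaCl2, MgCl2, BSA and saponin. Filter-bound radioactivity quantified; calculated Ki given as ranges from +++ (<500 nM) to # (>5 μM).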
# Chain of human NK-3 receptor (P29371 whole entry): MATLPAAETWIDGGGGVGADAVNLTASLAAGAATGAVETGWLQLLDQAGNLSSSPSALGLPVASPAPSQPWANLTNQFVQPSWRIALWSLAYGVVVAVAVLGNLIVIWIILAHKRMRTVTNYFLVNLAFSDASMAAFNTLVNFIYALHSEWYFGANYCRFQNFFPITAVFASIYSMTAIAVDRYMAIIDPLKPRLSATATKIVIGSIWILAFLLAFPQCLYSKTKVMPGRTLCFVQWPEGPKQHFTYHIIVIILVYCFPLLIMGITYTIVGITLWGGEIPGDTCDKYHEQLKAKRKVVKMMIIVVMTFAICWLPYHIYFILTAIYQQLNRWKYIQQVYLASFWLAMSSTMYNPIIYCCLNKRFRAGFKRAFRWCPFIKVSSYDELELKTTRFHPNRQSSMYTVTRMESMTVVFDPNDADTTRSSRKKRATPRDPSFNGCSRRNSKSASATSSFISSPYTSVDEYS
row,Structure (SMILES),pKi
1,"C[C@H]1c2nnc(-c3csc(-c4ccc(F)cc4F)n3)n2CCN1C(=O)c1ccc(-c2cccs2)cc1 [Compound 165, (S)-(3-(2-(2,4-difluorophenyl)thiazol-4-yl)-8-methyl-5,6-dihydro-[1,2,4]triazolo[4,3-a]pyrazin-7(8H)-yl)(4-(thiophen-2-yl)phenyl)methanone]",> 6.30
2,"CC1c2nnc(-c3csc(-c4ccccc4)n3)n2CCN1C(=O)c1ccc(F)cc1 (stereo not drawn) [Compound 166, (4-fluorophenyl)(8-methyl-3-(2-phenylthiazol-4-yl)-5,6-dihydro-[1,2,4]triazolo[4,3-a]pyrazin-7(8H)-yl)methanone]",> 6.30
3,"C[C@H]1c2nnc(-c3csc(-c4ccccc4)n3)n2CCN1C(=O)c1ccc(F)cc1 [Compound 167, (S)-(4-fluorophenyl)(8-methyl-3-(2-phenylthiazol-4-yl)-5,6-dihydro-[1,2,4]triazolo[4,3-a]pyrazin-7(8H)-yl)methanone]",6.00 to 6.30
4,"C[C@H]1c2nnc(-c3nc(-c4ccc(F)cc4)no3)n2CCN1C(=O)c1ccc(-c2cccs2)cc1 [Compound 168, (S)-(3-(3-(4-fluorophenyl)-1,2,4-oxadiazol-5-yl)-8-methyl-5,6-dihydro-[1,2,4]triazolo[4,3-a]pyrazin-7(8H)-yl)(4-(thiophen-2-yl)phenyl)methanone]",> 6.30
5,"C[C@@H]1c2nnc(-c3nc(-c4ccc(F)cc4)no3)n2CCN1C(=O)c1ccc(-c2cccs2)cc1 [Compound 169, (R)-(3-(3-(4-fluorophenyl)-1,2,4-oxadiazol-5-yl)-8-methyl-5,6-dihydro-[1,2,4]triazolo[4,3-a]pyrazin-7(8H)-yl)(4-(thiophen-2-yl)phenyl)methanone]",> 6.30
6,"O=C(c1ccc(-c2cccs2)cc1)N1CCn2c(nnc2-c2noc(-c3ccccc3)n2)C1 [Compound 171, (3-(5-phenyl-1,2,4-oxadiazol-3-yl)-5,6-dihydro-[1,2,4]triazolo[4,3-a]pyrazin-7(8H)-yl)(4-(thiophen-2-yl)phenyl)methanone]",> 6.30
7,"O=C(c1ccc(F)cc1)N1CCn2c(nnc2-c2nc(-c3ccccc3)no2)C1 [Compound 172, (4-fluorophenyl)(3-(3-phenyl-1,2,4-oxadiazol-5-yl)-5,6-dihydro-[1,2,4]triazolo[4,3-a]pyrazin-7(8H)-yl)methanone]",> 6.30
8,"O=C(c1ccc(F)cc1)N1CCn2c(nnc2-c2noc(-c3ccccc3)n2)C1 [Compound 173, (4-fluorophenyl)(3-(5-phenyl-1,2,4-oxadiazol-3-yl)-5,6-dihydro-[1,2,4]triazolo[4,3-a]pyrazin-7(8H)-yl)methanone]",> 6.30
9,"O=C(c1ccc(-c2cccs2)cc1)N1CCn2c(nnc2-c2nc(-c3ccccc3)no2)C1 [Compound 174, (3-(3-phenyl-1,2,4-oxadiazol-5-yl)-5,6-dihydro-[1,2,4]triazolo[4,3-a]pyrazin-7(8H)-yl)(4-(thiophen-2-yl)phenyl)methanone]",> 6.30
10,"O=C(c1ccc(F)cc1)N1CCn2c(nnc2-c2nc(-c3ccc(F)cc3)no2)C1 [Compound 175, (4-fluorophenyl)(3-(3-(4-fluorophenyl)-1,2,4-oxadiazol-5-yl)-5,6-dihydro-[1,2,4]triazolo[4,3-a]pyrazin-7(8H)-yl)methanone]",> 6.30
11,"O=C(c1ccc(-c2cccs2)cc1)N1CCn2c(nnc2-c2nc(-c3ccc(F)cc3F)no2)C1 [Compound 177, (3-(3-(2,4-difluorophenyl)-1,2,4-oxadiazol-5-yl)-5,6-dihydro-[1,2,4]triazolo[4,3-a]pyrazin-7(8H)-yl)(4-(thiophen-2-yl)phenyl)methanone]",> 6.30
12,"O=C(c1ccc(F)cc1)N1CCn2c(nnc2-c2n[nH]c(-c3ccccc3)n2)C1 [Compound 178, (4-fluorophenyl)(3-(5-phenyl-1H-1,2,4-triazol-3-yl)-5,6-dihydro-[1,2,4]triazolo[4,3-a]pyrazin-7(8H)-yl)methanone]",5.30 to 6.00
13,"O=C(c1ccc(-c2cccs2)cc1)N1CCn2c(nnc2-c2n[nH]c(-c3ccccc3)n2)C1 [Compound 179, (3-(5-phenyl-1H-1,2,4-triazol-3-yl)-5,6-dihydro-[1,2,4]triazolo[4,3-a]pyrazin-7(8H)-yl)(4-(thiophen-2-yl)phenyl)methanone]",> 6.30
14,"O=C(c1ccc(F)cc1)N1CCn2c(nnc2-c2csc(-c3ccccc3F)n2)C1 [Compound 180, (4-fluorophenyl)(3-(2-(2-fluorophenyl)thiazol-4-yl)-5,6-dihydro-[1,2,4]triazolo[4,3-a]pyrazin-7(8H)-yl)methanone]",> 6.30
15,"O=C(c1ccc(-c2ccccc2)cc1)N1CCn2c(nnc2-c2csc(-c3ccccc3F)n2)C1 [Compound 182, [1,1′-biphenyl]-4-yl(3-(2-(2-fluorophenyl)thiazol-4-yl)-5,6-dihydro-[1,2,4]triazolo[4,3-a]pyrazin-7(8H)-yl)methanone]",> 6.30
16,"O=C(c1ccc(-c2cccs2)cc1)N1CCn2c(nnc2-c2nc(-c3ccc(F)cc3F)no2)C1 [Compound 185, (3-(3-(2,4-difluorophenyl)-1,2,4-oxadiazol-5-yl)-5,6-dihydro-[1,2,4]triazolo[4,3-a]pyrazin-7(8H)-yl)(4-(thiophen-2-yl)phenyl)methanone]",< 5.30
17,"O=C(c1ccc(-c2ccccc2)cc1)N1CCn2c(nnc2-c2csc(Cn3cnc(Cl)c3Cl)n2)C1 [Compound 186, [1,1′-biphenyl]-4-yl(3-(2-((4,5-dichloro-1H-imidazol-1-yl)methyl)thiazol-4-yl)-5,6-dihydro-[1,2,4]triazolo[4,3-a]pyrazin-7(8H)-yl)methanone]",5.30 to 6.00
18,"O=C(c1ccc(-c2ccc(F)cc2)cc1)N1CCn2c(nnc2-c2csc(Cn3cnc(Cl)c3Cl)n2)C1 [Compound 187, (3-(2-((4,5-dichloro-1H-imidazol-1-yl)methyl)thiazol-4-yl)-5,6-dihydro-[1,2,4]triazolo[4,3-a]pyrazin-7(8H)-yl)(4′-fluoro-[1,1′-biphenyl]-4-yl)methanone]",5.30 to 6.00
19,"O=C(c1ccc(F)cc1)N1CCn2c(nnc2-c2csc(Cc3ccc(Cl)cc3)n2)C1 [Compound 188, (3-(2-(4-chlorobenzyl)thiazol-4-yl)-5,6-dihydro-[1,2,4]triazolo[4,3-a]pyrazin-7(8H)-yl)(4-fluorophenyl)methanone]",6.00 to 6.30
20,"O=C(c1ccc(-c2cccs2)cc1)N1CCn2c(nnc2-c2csc(CS(=O)(=O)c3ccc(Cl)cc3)n2)C1 [Compound 198, (3-(2-(((4-chlorophenyl)sulfonyl)methyl)thiazol-4-yl)-5,6-dihydro-[1,2,4]triazolo[4,3-a]pyrazin-7(8H)-yl)(4-(thiophen-2-yl)phenyl)methanone]",5.30 to 6.00

# Second part, the compound after the results:
row,pKi,Structure (SMILES)
1,> 6.30,"O=C(c1ccc(-c2cccs2)cc1)N1CCn2c(nnc2-c2csc(-c3ccc(F)cc3F)n2)C1 [Compound 170, (3-(2-(2,4-difluorophenyl)thiazol-4-yl)-5,6-dihydro-[1,2,4]triazolo[4,3-a]pyrazin-7(8H)-yl)(4-(thiophen-2-yl)phenyl)methanone]"
2,> 6.30,"O=C(c1ccc(-c2cccs2)cc1)N1CCn2c(nnc2-c2nc(-c3ccc(F)cc3)no2)C1 [Compound 176, (3-(3-(4-fluorophenyl)-1,2,4-oxadiazol-5-yl)-5,6-dihydro-[1,2,4]triazolo[4,3-a]pyrazin-7(8H)-yl)(4-(thiophen-2-yl)phenyl)methanone]"
3,> 6.30,"O=C(c1ccc(-c2cccs2)cc1)N1CCn2c(nnc2-c2csc(-c3ccccc3F)n2)C1 [Compound 181, (3-(2-(2-fluorophenyl)thiazol-4-yl)-5,6-dihydro-[1,2,4]triazolo[4,3-a]pyrazin-7(8H)-yl)(4-(thiophen-2-yl)phenyl)methanone]"
4,> 6.30,"O=C(c1ccc(-c2ccc(F)cc2)cc1)N1CCn2c(nnc2-c2csc(-c3ccccc3F)n2)C1 [Compound 183, (4′-fluoro-[1,1′-biphenyl]-4-yl)(3-(2-(2-fluorophenyl)thiazol-4-yl)-5,6-dihydro-[1,2,4]triazolo[4,3-a]pyrazin-7(8H)-yl)methanone]"
5,> 6.30,"Cc1ccc(-c2nc(-c3nnc4n3CCN(C(=O)c3ccc(F)cc3)C4)cs2)cc1 [Compound 190, (4-fluorophenyl)(3-(2-(p-tolyl)thiazol-4-yl)-5,6-dihydro-[1,2,4]triazolo[4,3-a]pyrazin-7(8H)-yl)methanone]"
6,< 5.30,"Cc1ccc(-c2nc(-c3nnc4n3CCN(C(=O)c3ccc(-c5cccs5)cc3)C4)cs2)cc1 [Compound 191, (4-(thiophen-2-yl)phenyl)(3-(2-(p-tolyl)thiazol-4-yl)-5,6-dihydro-[1,2,4]triazolo[4,3-a]pyrazin-7(8H)-yl)methanone]"
7,> 6.30,"O=C(c1ccc(F)cc1)N1CCn2c(nnc2-c2csc(-c3cccs3)n2)C1 [Compound 193, (4-fluorophenyl)(3-(2-(thiophen-2-yl)thiazol-4-yl)-5,6-dihydro-[1,2,4]triazolo[4,3-a]pyrazin-7(8H)-yl)methanone]"
8,> 6.30,"O=C(c1ccc(-c2cccs2)cc1)N1CCn2c(nnc2-c2csc(-c3cccs3)n2)C1 [Compound 194, (4-(thiophen-2-yl)phenyl)(3-(2-(thiophen-2-yl)thiazol-4-yl)-5,6-dihydro-[1,2,4]triazolo[4,3-a]pyrazin-7(8H)-yl)methanone]"
9,> 6.30,"O=C(c1ccc(-c2ccccc2)cc1)N1CCn2c(nnc2-c2csc(-c3cccs3)n2)C1 [Compound 195, [1,1′-biphenyl]-4-yl(3-(2-(thiophen-2-yl)thiazol-4-yl)-5,6-dihydro-[1,2,4]triazolo[4,3-a]pyrazin-7(8H)-yl)methanone]"
10,> 6.30,"O=C(c1ccc(-c2ccc(F)cc2)cc1)N1CCn2c(nnc2-c2csc(-c3cccs3)n2)C1 [Compound 196, (4′-fluoro-[1,1′-biphenyl]-4-yl)(3-(2-(thiophen-2-yl)thiazol-4-yl)-5,6-dihydro-[1,2,4]triazolo[4,3-a]pyrazin-7(8H)-yl)methanone]"
